Measurements as given in PubChem BioAssay AID1963834 (Molecular Pharmacology Branch, DTP, NCI, 2024).
Values joined by “and” are separate entries in the source; they are usually repeats but may differ in a detail not shown here. Identical values can stand only once.

Test system: 873145-292-R-J1-PDC complex spheroid viability
Assay: Anticancer human tumor 873145-292-R-J1-PDC patient-derived renal clear cell carcinoma cell line growth inhibition [POLQ]
Conditions: for viability, T/C: stronger effect = lower value
Procedure: Multicellular complex tumor spheroid response to Polymerase (POL) inhibitors (novobiocin, ART-558, RP6685) in combination with a variety of drugs and investigational agents in selected tumor cell lines
The POL inhibitors (novobiocin, ART-558, and RP6685) were evaluated both individually and in combination with standard of care and investigational anticancer small molecules within a complex spheroid model of solid tumors. . Complex spheroids include a stromal component modeled by human endothelial cells (HUVEC) and fibroblasts modeled by human mesenchymal stem cells (MSCs). The concentration ranges selected for each drug and investigational agent were based upon clinically achievable concentrations if the clinical Cmax of the agent was known.
Compounds. The drugs and investigational agents: novobiocin (NSC847541), ART-558 (NSC835418), RP-6685 (NSC848927), peposertib (NSC802822), ceralasertib (NSC780249), elimusertib (NSC800525), camonsertib (NSC841442), AZD-1390 (NSC803789), olaparib (NSC753686), talazoparib (NSC767125), rucaparib (NSC756644), sotorasib (NSC818433), MRTX-1133 (NSC836407), SN-38 (NSC673596), topotecan (NSC609699), epotoside (NSC141540), doxorubicin (NSC123127), gemcitabine (NSC613327), 5-fluorouracil (NSC19893), paclitaxel (NSC125973), vemurafenib (NSC761431), MSA-2 (NSC828583), SN-011 (NSC837082), adavosertib (NSC754352), prexasertib (NSC758257), carboplatin (NSC241240) and oxaliplatin (NSC266046), were obtained from the National Cancer Institute (NCI) Developmental Therapeutics Program Chemical Repository (21). The FDA-approved anticancer drug set is available from the Developmental Therapeutics Program at https://dtp.cancer.gov/organization/dscb/obtaining/. […] The stock solutions were prepared in dimethyl sulfoxide (DMSO, Sigma-Aldrich, St. Louis, MO, cat. D2650), except for the platinum compounds which were prepared in saline (Quality Biological, Gaithersburg, MD, cat. 114-055-101), at 800-fold the tested concentration and stored at -70 degrees C prior to their use. All drugs and investigational agents were tested over a range starting from a high concentration at or near the clinical Cmax and decreasing in half-log increments. If the clinical Cmax for an agent had not been determined, the highest concentration tested was 10 microM, except for SN-38, which was tested at a high concentration of 1 microM.
Cell Culture. All cells were maintained in an incubator at 37 degrees C and 5% CO2 with 95% humidity. The PDC lines were cultured according to standard operating procedures established by the NCI PDMR (https://pdmr.cancer.gov). Table 3 of the manuscript, lists the cell lines along with the number of the three cell types plated to form the mct-spheroids and media for tumor cell growth. After thawing, all PDC lines, except 997537-175-T-J1-PDC and 415267-285-R-J2-PDC, were cultured in Matrigel-coated flasks prepared with a working solution of 1X Ham's F-12 nutrient mix, without supplementation (Thermo Fisher Scientific, cat. 11765054), 100 U/mL penicillin-streptomycin (Thermo Fisher Scientific, cat. 15140122), and 2.5% Matrigel (Corning Inc., Corning, NY, cat. 354248) for the first three passages. The two PDC lines 997537-175-T-J1-PDC and 415267-285-R-J2-PDC were cultured on uncoated flasks. The 857933-349-R-J2-PDC line was cultured in 6C/Colon 1B media containing advanced DMEM/F-12 (Thermo Fisher Scientific, cat. 12634028), 10 mM HEPES (Thermo Fisher Scientific, cat. 15630080), 1X GlutaMAX supplement (Thermo Fisher Scientific, cat. 35050061), 0.1 mg/mL primocin (InvivoGen, San Diego, CA, cat. ant-pm-2), 10% defined fetal bovine serum, heat inactivated (HyClone Laboratories Inc., Logan, UT, cat. SH30070.03HI), 50% L-WRN conditioned media (ATCC, cat. CRL-3276), 1.25 mM N-Acetyl-L-cysteine (Sigma-Aldrich, cat. A9165), 10 mM nicotinamide (Sigma-Aldrich, cat. N0636), 1X B-27 supplement (Thermo Fisher Scientific, cat. 17504044), 1X N-2 supplement (Thermo Fisher Scientific, cat. […]

[1] = compound alone, run of 01/08/2024
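Also: spheroids exposed to compounds for 7 days before viability readout.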
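For viability, T/C in this document: luminescence signal used as surrogate for viable cell content; 100% = DMSO vehicle control viability.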

`COc1cc(C2c3cc4c(cc3C(OC3OC5COC(C)OC5C(O)C3O)C3COC(=O)C23)OCO4)cc(OC)c1O` (configuration not stated) was tested, and the viability, T/C (compound 0.0316 µM) was 95.1% and 110% and 113%, the viability, T/C (compound 0.1 µM) was 94.9% and 101% and 95.3% and the viability, T/C (compound 0.316 µM) was 98.2% and 106% and 94.5%. The viability, T/C (compound 1 µM) was 95.1% and 95.9% and 102%, the viability, T/C (compound 3.16 µM) was 67% and 80.8% and 85.2% and the viability, T/C (compound 10 µM) was 56.9% and 68.2% and 66%. The IC50 (curve of compound) was greater than 10 µM.

`CC1COCCN1c1cc(C2(S(C)(=N)=O)CC2)nc(-c2ccnc3[nH]ccc23)n1` (configuration not stated) + Cc1cccc(N(C)C(=O)C2C(O)CCN2c2nc(C)cc(C(F)(F)F)c2C#N)c1 showed an IC50 (curve of first compound, second compound 0.0316 µM) greater than 10 µM, an IC50 (curve of first compound, second compound 0.1 µM) greater than 10 µM and an IC50 (curve of first compound, second compound 0.316 µM) greater than 10 µM. For the same compound, the IC50 (curve of first compound, second compound 1 µM) was greater than 10 µM, the IC50 (curve of first compound, second compound 3.16 µM) was greater than 10 µM and the IC50 (curve of first compound, second compound 10 µM) was greater than 10 µM. The viability, T/C (second compound 0.0316 µM, first compound 0.0316 µM) was 98.1%, the viability, T/C (second compound 0.0316 µM, first compound 0.1 µM) was 102% and the viability, T/C (second compound 0.0316 µM, first compound 0.316 µM) was 101%. For the same compound, the viability, T/C (second compound 0.0316 µM, first compound 1 µM) was 95.4%, the viability, T/C (second compound 0.0316 µM, first compound 3.16 µM) was 83.6% and the viability, T/C (second compound 0.0316 µM, first compound 10 µM) was 64.5%. The viability, T/C (second compound 0.1 µM, first compound 0.0316 µM) was 104%, the viability, T/C (second compound 0.1 µM, first compound 0.1 µM) was 98.5% and the viability, T/C (second compound 0.1 µM, first compound 0.316 µM) was 90.1%. The viability, T/C (second compound 0.1 µM, first compound 1 µM) was 102%, the viability, T/C (second compound 0.1 µM, first compound 3.16 µM) was 75.1% and the viability, T/C (second compound 0.1 µM, first compound 10 µM) was 59.4%. For the same compound, the viability, T/C (second compound 0.316 µM, first compound 0.0316 µM) was 115%, the viability, T/C (second compound 0.316 µM, first compound 0.1 µM) was 96.6% and the viability, T/C (second compound 0.316 µM, first compound 0.316 µM) was 98.8%. It also gave a viability, T/C (second compound 0.316 µM, first compound 1 µM) of 87.1%, a viability, T/C (second compound 0.316 µM, first compound 3.16 µM) of 92% and a viability, T/C (second compound 0.316 µM, first compound 10 µM) of 60.1%. For the same compound, the viability, T/C (second compound 1 µM, first compound 0.0316 µM) was 101%, the viability, T/C (second compound 1 µM, first compound 0.1 µM) was 99.3% and the viability, T/C (second compound 1 µM, first compound 0.316 µM) was 93.5%. It also gave a viability, T/C (second compound 1 µM, first compound 1 µM) of 96%, a viability, T/C (second compound 1 µM, first compound 3.16 µM) of 75.3% and a viability, T/C (second compound 1 µM, first compound 10 µM) of 54.5%. The viability, T/C (second compound 3.16 µM, first compound 0.0316 µM) was 99.4%, the viability, T/C (second compound 3.16 µM, first compound 0.1 µM) was 99.6% and the viability, T/C (second compound 3.16 µM, first compound 0.316 µM) was 99.6%. It also gave a viability, T/C (second compound 3.16 µM, first compound 1 µM) of 87.2%, a viability, T/C (second compound 3.16 µM, first compound 3.16 µM) of 77.4% and a viability, T/C (second compound 3.16 µM, first compound 10 µM) of 55.4%. The viability, T/C (second compound 10 µM, first compound 0.0316 µM) was 90.8%, the viability, T/C (second compound 10 µM, first compound 0.1 µM) was 96.3% and the viability, T/C (second compound 10 µM, first compound 0.316 µM) was 98.4%. The viability, T/C (second compound 10 µM, first compound 1 µM) was 91.5%, the viability, T/C (second compound 10 µM, first compound 3.16 µM) was 64.9% and the viability, T/C (second compound 10 µM, first compound 10 µM) was 68.8%.

With `CC[C@@]1(O)C(=O)OCc2c1cc1n(c2=O)Cc2cc3c(CN(C)C)c(O)ccc3nc2-1` the viability, T/C (compound 0.000316 µM) was 96.5% and 108% and 99.8%, the viability, T/C (compound 0.001 µM) was 94.6% and 99.2% and 92.7% and the viability, T/C (compound 0.00316 µM) was 93.4% and 95.2% and 101%. For the same compound, the viability, T/C (compound 0.01 µM) was 92.8% and 107% and 103%, the viability, T/C (compound 0.0316 µM) was 84.9% and 95.7% and 77.4% and the viability, T/C (compound 0.1 µM) was 59.5% and 63.6% and 48.9%. The IC50 (curve of compound) was > 0.1 µM and 0.0955 µM.

In the case of `Cc1cccc(N(C)C(=O)C2C(O)CCN2c2nc(C)cc(C(F)(F)F)c2C#N)c1` (configuration not stated), the viability, T/C (compound 0.0316 µM) is reported as 93.4% [middle of 13 runs], the viability, T/C (compound 0.1 µM) is reported as 97.4% [middle of 13 runs] and the viability, T/C (compound 0.316 µM) is reported as 98.9% [middle of 13 runs]. The viability, T/C (compound 1 µM) was 99.9% [middle of 13 runs], the viability, T/C (compound 3.16 µM) was 99.1% [middle of 13 runs] and the viability, T/C (compound 10 µM) was 95.5% [middle of 11 runs]. It also gave an IC50 [1] greater than 10 µM and an IC50 (compound alone, run of 01/19/2024) greater than 10 µM.

With `COC1C(OC(N)=O)C(O)C(Oc2ccc3c(O)c(NC(=O)c4ccc(O)c(CC=C(C)C)c4)c(=O)oc3c2C)OC1(C)C` (configuration not stated) the viability, T/C (compound 0.0316 µM) was 93.7% [middle of 13 runs], the viability, T/C (compound 0.316 µM) was 102% [middle of 13 runs] and the viability, T/C (compound 1 µM) was 99.8% [middle of 13 runs]. The viability, T/C (compound 3.16 µM) was 102% [middle of 13 runs], the viability, T/C (compound 10 µM) was 98.3% [middle of 13 runs] and the IC50 [1] was greater than 10 µM.

`Nc1ccn(C2OC(CO)C(O)C2(F)F)c(=O)n1` (configuration not stated) was tested, and the viability, T/C (compound 0.0316 µM) was 64.3% and 74.6% and 56.8%, the viability, T/C (compound 0.1 µM) was 55.4% and 57.4% and 46.8% and the viability, T/C (compound 0.316 µM) was 50.4% and 59.5% and 57.8%. For the same compound, the viability, T/C (compound 1 µM) was 58.3% and 53% and 55.6%, the viability, T/C (compound 3.16 µM) was 55.6% and 60% and 51.4% and the viability, T/C (compound 10 µM) was 49.7% and 56.7% and 41.6%. For the same compound, the IC50 (curve of compound) was > 10 µM and 1.86 µM.
